The subject of this assay is P388 leukemia ip, CD2F1 mice, survival T/C. As to the kind of experiment: NCI In Vivo Anticancer Drug Screen. Data for tumor model P388 Leukemia (intraperitoneal) in CD2F1 (CDF1) mice. As to conditions: endpoint: median survival time, higher = longer survival. In a few lines: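 Mice carrying the transplanted tumor received test compound or vehicle. Survival was recorded in each group, and the value is the treated-group measurement divided by that of the vehicle-treated control group.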

[1] abbreviates: dose: 100.0 mg/kg/injection, schedule: Q04DX002 (ip), vehicle: Klucel (hydroxypropylcellulose) (HPC).
The mark [2] stands for this setting: dose: 50.0 mg/kg/injection, schedule: Q01DX005 (ip), vehicle: saline.
Setting [3] is: dose: 50.0 mg/kg/injection, schedule: Q01DX009 (ip), vehicle: Klucel (hydroxypropylcellulose) (HPC).
[4] abbreviates: dose: 50.0 mg/kg/injection, schedule: Q01DX009 (ip), vehicle: saline with Tween-80.
[5] abbreviates: dose: 100.0 mg/kg/injection, schedule: Q01DX009 (ip), vehicle: Klucel (hydroxypropylcellulose) (HPC).
The mark [6] stands for this setting: dose: 100.0 mg/kg/injection, schedule: Q01DX009 (ip), vehicle: saline with Tween-80.
The mark [7] stands for this setting: dose: 200.0 mg/kg/injection, schedule: Q01DX009 (ip), vehicle: Klucel (hydroxypropylcellulose) (HPC).
The mark [8] stands for this setting: dose: 200.0 mg/kg/injection, schedule: Q01DX009 (ip), vehicle: saline with Tween-80.
[9] abbreviates: dose: 50.0 mg/kg/injection, schedule: Q01DX005 (ip), vehicle: Klucel (hydroxypropylcellulose) (HPC).
[10] abbreviates: dose: 100.0 mg/kg/injection, schedule: Q01DX005 (ip), vehicle: Klucel (hydroxypropylcellulose) (HPC).

We go through 19 molecules from PubChem BioAssay AID330 (DTP/NCI, 2004).

Where “and” joins values, the source holds several entries; their conditions need not be identical. Equal values may be shown once. Inconclusive results and toxic doses are left out.

With `Cc1cccc(=O)[n-]1.Cc1cccc(=O)[n-]1.Cc1cccc(=O)[n-]1.Cc1cccc(=O)[n-]1.[Cu+].[Cu+].[Cu+].[Cu+]`, the T/C (dose: 12.5 mg/kg/injection, schedule: Q04DX002 (ip), vehicle: Klucel (hydroxypropylcellulose) (HPC)) was 108 % of control; the T/C (dose: 25.0 mg/kg/injection, schedule: Q04DX002 (ip), vehicle: Klucel (hydroxypropylcellulose) (HPC)) is 109 % of control; the T/C (dose: 50.0 mg/kg/injection, schedule: Q04DX002 (ip), vehicle: Klucel (hydroxypropylcellulose) (HPC)) is 100 % of control; the T/C under setting [1] is 108 % of control.

`CC(=O)N1C2C3CCC(C)(OC3(C)C)C21` (configuration not stated): the T/C was 107 % of control under setting [2]; 102 % of control (dose: 100.0 mg/kg/injection, schedule: Q01DX005 (ip), vehicle: saline); 110 % of control (dose: 200.0 mg/kg/injection, schedule: Q01DX005 (ip), vehicle: saline).

With `NC(=O)c1sc(SCc2ccccc2)c(-[n+]2ccccc2)c1N`, the T/C is, setting by setting: (dose: 25.0 mg/kg/injection, schedule: Q04DX002 (ip), vehicle: saline with Tween-80) 105 % of control; (dose: 50.0 mg/kg/injection, schedule: Q04DX002 (ip), vehicle: saline with Tween-80) 105 % of control.

For `NC(=NCc1ccccc1)N/N=C\c1ccnc2ccccc12`, the T/C by setting is: (dose: 15.0 mg/kg/injection, schedule: Q01DX005 (ip), vehicle: Klucel (hydroxypropylcellulose) (HPC)) 101 % of control; (dose: 30.0 mg/kg/injection, schedule: Q01DX005 (ip), vehicle: Klucel (hydroxypropylcellulose) (HPC)) 97 % of control; (dose: 60.0 mg/kg/injection, schedule: Q01DX005 (ip), vehicle: Klucel (hydroxypropylcellulose) (HPC)) 95 % of control and 97 % of control.

Regarding `CC(C)=CCCC(=O)C(c1nc2nnc(N)n2[nH]c1=O)c1nc2nnc(N)n2[nH]c1=O`, the T/C is 104 % of control (dose: 60.0 mg/kg/injection, schedule: Q01DX005 (ip), vehicle: saline); 104 % of control (dose: 120.0 mg/kg/injection, schedule: Q01DX005 (ip), vehicle: saline); 95 % of control (dose: 240.0 mg/kg/injection, schedule: Q01DX005 (ip), vehicle: saline).

For the molecule `CC1(C)NNC(=S)NC1=O`, the T/C reads like this: under setting [3], 99 % of control; under setting [4], 100 % of control; under setting [5], 97 % of control; under setting [6], 113 % of control; under setting [7], 94 % of control; under setting [8], 97 % of control.

For the molecule `O=S1(=O)CCN(C2CCS(=O)(=O)C2)CC1` (configuration not stated), the T/C is, setting by setting: under setting [3], 90 % of control; under setting [5], 99 % of control; under setting [7], 90 % of control.

As to `O=C1C=CC(=Nc2cc(Br)c(O)c(Br)c2)C=C1`, the T/C (dose: 12.5 mg/kg/injection, schedule: Q01DX005 (ip), vehicle: saline) is 103 % of control; the T/C (dose: 25.0 mg/kg/injection, schedule: Q01DX005 (ip), vehicle: saline) is 99 % of control; the T/C under setting [2] is 89 % of control and 95 % of control.

`C#CC(OC(=O)NC1CCCCC1)(c1ccccc1)c1ccccc1`: the T/C runs as follows: (dose: 4.4 mg/kg/injection, schedule: Q01DX009 (ip), vehicle: saline with Tween-80) 100 % of control; (dose: 6.6 mg/kg/injection, schedule: Q01DX009 (ip), vehicle: saline with Tween-80) 98 % of control; (dose: 10.0 mg/kg/injection, schedule: Q01DX009 (ip), vehicle: saline with Tween-80) 93 % of control; (dose: 15.0 mg/kg/injection, schedule: Q01DX009 (ip), vehicle: saline with Tween-80) 100 % of control; (dose: 22.0 mg/kg/injection, schedule: Q04DX003 (ip), vehicle: saline with Tween-80) 118 % of control; (dose: 25.0 mg/kg/injection, schedule: Q04DX003 (ip), vehicle: saline with Tween-80) 108 % of control. Moreover, the T/C reads like this: (dose: 33.0 mg/kg/injection, schedule: Q01DX009 (ip), vehicle: saline with Tween-80) 163 % of control; (dose: 33.0 mg/kg/injection, schedule: Q04DX003 (ip), vehicle: saline with Tween-80) 122 % of control; under setting [4], 102 % of control; (dose: 75.0 mg/kg/injection, schedule: Q04DX003 (ip), vehicle: saline with Tween-80) 163 % of control.

As to `Cn1c(C2(C)C(=O)NC(=O)c3cnccc32)cc2ccccc21` (configuration not stated), the T/C runs as follows: under setting [1], 103 % of control; (dose: 200.0 mg/kg/injection, schedule: Q04DX002 (ip), vehicle: Klucel (hydroxypropylcellulose) (HPC)) 92 % of control.

As for `Cc1ccc(S(=O)(=O)N2C(=N)C(=S)N(C)C2=O)cc1`, the T/C (dose: 60.0 mg/kg/injection, schedule: Q01DX005 (ip), vehicle: Klucel + Tween-80) was 101 % of control; the T/C (dose: 120.0 mg/kg/injection, schedule: Q01DX005 (ip), vehicle: Klucel + Tween-80) was 111 % of control; the T/C (dose: 240.0 mg/kg/injection, schedule: Q01DX005 (ip), vehicle: Klucel + Tween-80) was 114 % of control.

On to `CCOC(=O)C[N+]12CCC34c5ccccc5N5C(=O)CC6OCC=C(C1)C(CC32)C6C54` (configuration not stated), for which the T/C (dose: 12.5 mg/kg/injection, schedule: Q01DX009 (ip), vehicle: saline with Tween-80) is 113 % of control and the T/C (dose: 25.0 mg/kg/injection, schedule: Q01DX009 (ip), vehicle: saline with Tween-80) is 106 % of control.

Consider `O=C(NNC(=O)c1ccccc1O)Nc1ccc(Cl)cc1C(F)(F)F`, for which the T/C is 103 % of control under setting [4], 106 % of control under setting [6] and 100 % of control under setting [8].

On to `CCCCN(CCCC)C1CCC(Nc2ccnc3cc(Cl)ccc23)CC1` (configuration not stated), for which the T/C is 98 % of control under setting [9] and 95 % of control under setting [10].

Regarding `CN(C)Cc1cc(O)c(CN(C)C)cc1O`, the T/C is, setting by setting: (dose: 3.13 mg/kg/injection, schedule: Q01DX009 (ip), vehicle: saline + Tween-80 + alcohol) 100 % of control; (dose: 6.25 mg/kg/injection, schedule: Q01DX009 (ip), vehicle: saline + Tween-80 + alcohol) 101 % of control and 111 % of control; (dose: 12.5 mg/kg/injection, schedule: Q01DX009 (ip), vehicle: other) 123 % of control; (dose: 12.5 mg/kg/injection, schedule: Q01DX009 (ip), vehicle: saline + Tween-80 + alcohol) 102 % of control and 112 % of control; (dose: 25.0 mg/kg/injection, schedule: Q01DX009 (ip), vehicle: other) 105 % of control; (dose: 25.0 mg/kg/injection, schedule: Q01DX009 (ip), vehicle: saline + Tween-80 + alcohol) 107 % of control and 109 % of control. For the same molecule, the T/C (dose: 50.0 mg/kg/injection, schedule: Q01DX009 (ip), vehicle: other) was 105 % of control and the T/C (dose: 100.0 mg/kg/injection, schedule: Q01DX009 (ip), vehicle: other) was 119 % of control.

For `Cc1ccc2c(c1)nc1sc(C)cc(=O)n12`, the T/C under setting [3] was 97 % of control, the T/C under setting [5] is 95 % of control and the T/C under setting [7] was 92 % of control.

As to `O=C(N=Cc1ccco1)C(=O)Nc1ccc(Cl)c([N+](=O)[O-])c1`, the T/C is 100 % of control under setting [4], 91 % of control under setting [6] and 96 % of control under setting [8].

Turning to `C[Si](C)(CCl)N[Si](C)(C)CCl`, the T/C by setting is: (dose: 50.0 mg/kg/injection, schedule: Q01DX009 (ip), vehicle: suspension in saline) 100 % of control; under setting [6], 100 % of control; (dose: 100.0 mg/kg/injection, schedule: Q01DX009 (ip), vehicle: suspension in saline) 98 % of control; under setting [8], 96 % of control; (dose: 200.0 mg/kg/injection, schedule: Q01DX009 (ip), vehicle: suspension in saline) 105 % of control; (dose: 400.0 mg/kg/injection, schedule: Q01DX009 (ip), vehicle: saline with Tween-80) 122 % of control.

As to `CC1=N/C(=C\c2ccc(Br)cc2)C(=O)O1`, the T/C reads like this: under setting [9], 109 % of control; under setting [10], 98 % of control; (dose: 200.0 mg/kg/injection, schedule: Q01DX005 (ip), vehicle: Klucel (hydroxypropylcellulose) (HPC)) 112 % of control.
